What was measured:
[1] = molecular target: T1, succinyl-CoA:glutarate-CoA transferase (SUGCT) (Homo sapiens, UniProt Q9HAC7, Q255A/K256A); assay: co-crystal structure; type: binding
T1 sequence (Q9HAC7 31-438 Q255A/K256A): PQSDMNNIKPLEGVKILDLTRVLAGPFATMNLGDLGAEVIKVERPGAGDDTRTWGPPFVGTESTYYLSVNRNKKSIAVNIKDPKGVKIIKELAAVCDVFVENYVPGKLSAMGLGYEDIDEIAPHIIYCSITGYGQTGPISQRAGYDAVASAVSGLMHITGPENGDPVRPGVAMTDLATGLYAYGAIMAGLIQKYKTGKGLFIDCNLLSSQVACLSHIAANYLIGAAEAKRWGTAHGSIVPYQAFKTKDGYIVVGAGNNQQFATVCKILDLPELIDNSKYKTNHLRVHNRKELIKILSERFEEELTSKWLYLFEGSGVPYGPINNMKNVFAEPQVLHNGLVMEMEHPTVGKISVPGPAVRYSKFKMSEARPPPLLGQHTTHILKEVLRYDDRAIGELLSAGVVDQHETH

[2] = substrate: CC(C)(COP(=O)(O)OP(=O)(O)OC[C@H]1O[C@@H](n2cnc3c(N)ncnc32)[C@H](O)[C@@H]1OP(=O)(O)O)[C@@H](O)C(=O)NCCC(=O)NCCSC(=O)CCCC(=O)O; assay: saturation kinetics; type: biochemical, Homo sapiens

Row | Molecule | co-crystal structure [1] | Km [2] [µM]
1 | CCCCc1nc(Cl)c(C(=O)O)n1Cc1ccc(-c2ccccc2-c2nn[nH]n2)cc1 [losartan carboxylic acid] | There was unambiguous density for losartan carboxylic acid in one of the four active sites | –
2 | succinyl-CoA:glutarate-CoA transferase (SUGCT) (Homo sapiens) (protein) PQSDMNNIKPLEGVKILDLTRVLAGPFATMNLGDLGAEVIKVERPGAGDDTRTWGPPFVGTESTYYLSVNRNKKSIAVNIKDPKGVKIIKELAAVCDVFVENYVPGKLSAMGLGYEDIDEIAPHIIYCSITGYGQTGPISQRAGYDAVASAVSGLMHITGPENGDPVRPGVAMTDLATGLYAYGAIMAGLIQKYKTGKGLFIDCNLLSSQVACLSHIAANYLIGQKEAKRWGTAHGSIVPYQAFKTKDGYIVVGAGNNQQFATVCKILDLPELIDNSKYKTNHLRVHNRKELIKILSERFEEELTSKWLYLFEGSGVPYGPINNMKNVFAEPQVLHNGLVMEMEHPTVGKISVPGPAVRYSKFKMSEARPPPLLGQHTTHILKEVLRYDDRAIGELLSAGVVDQHETH | – | 17.3
